{"source": "paper PMC3830123", "about": "(Biomolecules & Therapeutics, 2013)", "assay_type_in_all_cases": "biochemical", "key": {"[1]": {"biological_target": "T1, Rat brain mitochondrial MAO (MAO-A) (Rattus norvegicus, UniProt P21396)", "T1 sequence (P21396 1-526)": "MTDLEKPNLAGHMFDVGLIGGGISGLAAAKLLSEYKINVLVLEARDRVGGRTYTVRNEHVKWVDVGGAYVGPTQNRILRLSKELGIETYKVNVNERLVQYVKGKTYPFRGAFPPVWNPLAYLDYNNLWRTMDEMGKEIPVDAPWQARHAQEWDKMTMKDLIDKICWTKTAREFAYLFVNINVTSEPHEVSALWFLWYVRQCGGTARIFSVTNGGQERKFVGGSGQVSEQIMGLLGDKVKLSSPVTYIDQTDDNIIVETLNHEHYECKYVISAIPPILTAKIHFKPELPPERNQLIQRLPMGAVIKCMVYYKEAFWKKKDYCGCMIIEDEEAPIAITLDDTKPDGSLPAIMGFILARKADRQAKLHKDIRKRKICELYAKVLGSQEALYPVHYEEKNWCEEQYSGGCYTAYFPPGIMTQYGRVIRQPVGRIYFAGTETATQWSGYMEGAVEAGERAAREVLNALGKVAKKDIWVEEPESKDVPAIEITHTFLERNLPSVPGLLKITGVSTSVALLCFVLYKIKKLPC", "assay": "MAO-A assay in vitro, serotonin as substrate"}, "[2]": {"biological_target": "T2, Rat liver mitochondrial MAO (MAO-B) (Rattus norvegicus, UniProt P19643)", "T2 sequence (P19643 1-520)": "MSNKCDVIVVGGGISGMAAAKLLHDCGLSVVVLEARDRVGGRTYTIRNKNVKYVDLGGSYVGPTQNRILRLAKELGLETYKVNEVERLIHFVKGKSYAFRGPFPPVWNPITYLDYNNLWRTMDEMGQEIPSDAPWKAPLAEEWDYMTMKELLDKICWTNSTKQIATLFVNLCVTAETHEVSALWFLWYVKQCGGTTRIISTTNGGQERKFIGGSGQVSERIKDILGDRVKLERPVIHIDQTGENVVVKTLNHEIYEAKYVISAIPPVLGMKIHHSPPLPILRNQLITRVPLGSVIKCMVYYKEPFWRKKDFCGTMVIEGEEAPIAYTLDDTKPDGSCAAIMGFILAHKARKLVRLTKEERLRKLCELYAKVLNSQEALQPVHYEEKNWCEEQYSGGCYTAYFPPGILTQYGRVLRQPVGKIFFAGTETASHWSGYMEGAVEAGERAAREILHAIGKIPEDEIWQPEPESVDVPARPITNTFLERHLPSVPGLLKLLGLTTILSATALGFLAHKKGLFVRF", "assay": "MAO-B assay in vitro, benzylamine as substrate", "conditions": "IC50 values MAO-B, isolated compounds, Table 2"}, "[3]": {"biological_target": "T3, dopamine β-hydroxylase (DBH) (Homo sapiens, UniProt P09172)", "T3 sequence (P09172 1-617)": "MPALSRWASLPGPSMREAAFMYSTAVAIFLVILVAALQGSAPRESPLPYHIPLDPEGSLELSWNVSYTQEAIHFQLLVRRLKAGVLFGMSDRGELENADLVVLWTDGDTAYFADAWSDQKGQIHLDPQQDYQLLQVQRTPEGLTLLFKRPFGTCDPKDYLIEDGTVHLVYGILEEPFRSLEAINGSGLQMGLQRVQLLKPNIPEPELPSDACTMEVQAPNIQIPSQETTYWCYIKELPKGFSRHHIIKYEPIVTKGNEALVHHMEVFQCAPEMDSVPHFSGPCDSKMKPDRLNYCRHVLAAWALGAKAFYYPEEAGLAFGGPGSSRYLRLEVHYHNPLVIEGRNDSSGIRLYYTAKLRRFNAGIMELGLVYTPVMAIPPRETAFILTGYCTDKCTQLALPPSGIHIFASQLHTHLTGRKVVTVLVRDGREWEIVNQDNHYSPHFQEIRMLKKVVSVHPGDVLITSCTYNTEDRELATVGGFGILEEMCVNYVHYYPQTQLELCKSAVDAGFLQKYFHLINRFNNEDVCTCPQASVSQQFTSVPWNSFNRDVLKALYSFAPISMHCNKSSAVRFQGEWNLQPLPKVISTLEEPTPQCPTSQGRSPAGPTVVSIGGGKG", "assay": "DBH assay in vitro, tyramine as substrate"}}}
{"smiles": "CC(C)=CCC/C(C)=C/Cc1c(O)ccc(C(=O)/C=C/c2ccc(O)cc2)c1O", "note": "[Xanthoangelol]", "values": [{"measurement": "IC50", "setting": "[1]", "result": 43.4, "unit": "µM"}, {"measurement": "IC50", "setting": "[2]", "result": 43.9, "unit": "µM"}, {"measurement": "IC50", "setting": "[3]", "result": 516, "unit": "µM"}]}
